Bounds are passed on as bounds.

For orientation: EC50 means the concentration needed to bring the measured effect to its halfway point.

Assay [1] has as its system HBV. Nature of the assay: HBV-DNA Antiviral Assay Using HepG2.2.15 Cells (extracellular HBV DNA by qPCR). The note with it: Hepatitis B virus, 168 h; HBV DNA inhibition, HepG2.2.15 cells, extracellular HBV DNA by qPCR on day 7; read-out: EC50. The class given is cell-based. On the procedure:
The following assay procedure describes the HBV antiviral assay. This assay uses HepG2.2.15 cells, which have been transfected with HBV genome, and extracellular HBV DNA quantification as endpoint. Cell viability is assessed in parallel by measuring the intracellular ATP content using the CellTiter-Glo© reagent from Promega.
On day 0, HepG2.2.15 cells were seeded in 96-well plates at a density of 6.0×10^4 cells/well (0.1 mL/well). The cells were incubated at 37° C. and 5% CO2.
On day 1, the test articles were diluted and added to cell culture wells (8 concentrations, 4-fold dilution, in duplicate). GLS4, Tenofovir and Sorafenib were used as reference compounds. 100 μL of culture medium containing the compounds was added to the plate, and the final total volume per well was 200 μL. The final concentration of DMSO in the culture medium was 0.5%. The plate map of compound treatment is shown below. The cells were cultured at 37° C. and 5% CO2 for 3 days.
On day 4, the plates were refreshed with culture media with compounds.
On day 7, cell viability was assessed using the CellTiter-Glo, and the cell culture supernatants were collected for determination of HBV DNA by qPCR.
Extracellular DNA was isolated with QIAamp 96 DNA Blood Kit per the manufacturer's manual. HBV DNA was then quantified by qPCR with HBV specific primers and probes as specified in Table 1 using the FastStart Universal MasterMix from Roche on an ABI-7900HT. The PCR cycle program consisted of 95° C. for 10 min, followed by 40 cycles at 95° C. for 15 sec and 60° C. for 1 min.
A DNA standard was prepared by dilution of the pAAV2 HBV1.3 plasmid with concentrations ranging from 10 to 1×10^7 copies/μL and used to generate a standard curve by plotting Ct value vs. the concentration of the HBV plasmid DNA standard. The quantity of HBV DNA in each sample was determined by interpolating from the standard curve.
Cell viability was calculated as follows: % Cell viability=(luminescence value of test sample−average luminescence value of blank)/(average luminescence value of 0.5% DMSO control−average luminescence of blank)×100%. HBV DNA inhibition was calculated as follows: 100-(HBV DNA copy number of test sample−HBV DNA copy number of ETV)/HBV DNA copy number of 0.5% DMSO control−HBV DNA copy number of ETV)×100%. The CC50, EC50 and EC90 values were determined by dose-response curves fitted by GraphPad Prism using “log (agonist) vs. response—Variable slope”.
(In general: Real-time PCR tracks product formation cycle by cycle.)

The subject of assay [2] is HBV. Briefly: HBV-DNA Antiviral Assay Using HepG2.117 Cells (intracellular HBV DNA by qPCR). The class given is cell-based, hepatitis B virus (genotype D). The note with it: Hepatitis B virus, HepG2.117. The procedure, abridged:
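HepG2.117 cells (genotype D HBV, Tet-off) were induced by doxycycline withdrawal and treated for 3 days with 9 concentrations in 4-fold dilution, 2% DMSO final. Intracellular HBV DNA was measured by qPCR against a standard curve, with ATPlite viability read in parallel. EC50, EC90 and CC50 came from fits against the DMSO control.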

As to `O=C1NCCCn2c1c1n(c2=O)CCN(C(=O)c2ccc(Br)c(F)c2)C1` [Example 6, 2-(4-bromo-3-fluorobenzoyl)-1,2,3,4,8,9,10,11-octahydro-6H,12H-pyrazino[1′,2′:3,4]imidazo[1,5-a][1,4]diazepine-6,12-dione], in assay [1], the EC50 was more than 5000 nM.

Consider `COc1ccc(CN2CCn3c(c4n(c3=O)CCN(C(=O)c3ccc(Br)c(F)c3)C4)C2=O)cc1` [Example 18, 12-(4-bromo-3-fluoro-benzoyl)-4-[(4-methoxyphenyl)methyl]-4,7,9,12-tetrazatricyclo[7.4.0.0^2,7]tridec-1-ene-3,8-dione], for which, in assay [1], the EC50 was more than 5000 nM.

As to `O=C(NCc1ccccc1-c1ncccc1F)c1c2n(c(=O)n1-c1ccc(OC3CC3)cc1)CCN(C(=O)c1ccc(Br)c(Cl)c1)C2` [Example 465, 7-(4-bromo-3-chloro-benzoyl)-2-[4-(cyclopropoxy)phenyl]-N-[[2-(3-fluoro-2-pyridyl)phenyl)methyl]-3-oxo-6,8-dihydro-5H-imidazo[1,5-a]pyrazine-1-carboxamide], the 50% effective concentration (EC50) in assay [1] was 100 to 500 nM.

Regarding `NS(=O)(=O)c1cccc(-n2c(C(=O)NCc3ccccc3)c3n(c2=O)CCN(C(=O)c2ccc(Br)c(Cl)c2)C3)c1` [Example 47, N-benzyl-7-(4-bromo-3-chloro-benzoyl)-3-oxo-2-(3-sulfamoylphenyl)-6,8-dihydro-5H-imidazo[1,5-a]pyrazine-1-carboxamide], the EC50 in assay [2] is more than 5000 nM.

As for `CC(C)(C)Oc1ccc(-n2c(C(=O)NCc3ccccc3)c3n(c2=O)CCN(C(=O)c2ccc(Br)c(Cl)c2)C3)cc1` [Example 396, N-benzyl-7-(4-bromo-3-chloro-benzoyl)-2-(4-tert-butoxyphenyl)-3-oxo-6,8-dihydro-5H-imidazo[1,5-a]pyrazine-1-carboxamide], the EC50 in assay [2] lay within 100 to 500 nM.

`NC(=O)COc1ccc(CNC(=O)c2c3n(c(=O)n2-c2ccc(OCC(F)(F)F)cc2)CCN(C(=O)c2ccc(Br)c(Cl)c2)C3)c(-n2cccn2)c1` [Example 328, N-[[4-(2-amino-2-oxo-ethoxy)-2-pyrazol-1-yl-phenyl]methyl]-7-(4-bromo-3-chloro-benzoyl)-3-oxo-2-[4-(2,2,2-trifluoroethoxy)phenyl]-6,8-dihydro-5H-imidazo[1,5-a]pyrazine-1-carboxamide]: the EC50 in assay [2] was in the range of 500 to 5000 nM.

In assay [2], `C[C@@H](NC(=O)c1c2n(c(=O)n1-c1ccc(OCC(F)(F)F)cc1)CCN(C(=O)c1ccc(Br)c(Cl)c1)C2)c1ccccc1` (stereo in doubt) [Example 128, 7-(4-bromo-3-chloro-benzoyl)-3-oxo-N-[rac-(1R)-1-phenylethyl]-2-[4-(2,2,2-trifluoroethoxy)phenyl]-6,8-dihydro-5H-imidazo[1,5-a]pyrazine-1-carboxamide] showed an EC50 of 100 to 500 nM.

Turning to `CC(C)Oc1ccc(-n2c(C(=O)NCc3ccccc3)c3n(c2=O)CCN(C(=O)/C=C/c2cccc(Cl)c2Cl)C3)cc1` [Example 226, N-benzyl-7-[(E)-3-(2,3-dichlorophenyl)prop-2-enoyl]-2-(4-isopropoxyphenyl)-3-oxo-6,8-dihydro-5H-imidazo[1,5-a]pyrazine-1-carboxamide], the EC50 in assay [2] is more than 5000 nM.

`COc1ccc(-n2c(C(=O)NC3(CO)CC3)c3n(c2=O)CCN(C(=O)c2ccc(Cl)c(Cl)c2)C3)cc1` [Example 106, 7-(3,4-dichlorobenzoyl)-N-[1-(hydroxymethyl)cyclopropyl]-2-(4-methoxyphenyl)-3-oxo-6,8-dihydro-5H-imidazo[1,5-a]pyrazine-1-carboxamide] came in with an EC50 in assay [2] of more than 5000 nM.

For the compound `C[C@H](Oc1ccc([C@H](C)NC(=O)c2c3n(c(=O)n2-c2ccc(OCC(F)(F)F)cc2)CCN(C(=O)c2ccc(Br)c(Cl)c2)C3)c(F)c1)C(N)=O` (stereo in doubt) [Example 362, 7-(4-bromo-3-chloro-benzoyl)-3-oxo-N-[rac-(1S)-1-[2-fluoro-4-[rac-(1S)-2-amino-1-methyl-2-oxo-ethoxy]phenyl]ethyl]-2-[4-(2,2,2-trifluoroethoxy)phenyl]-6,8-dihydro-5H-imidazo[1,5-a]pyrazine-1-carboxamide], the EC50 in assay [2] fell in the range of 100 to 500 nM.

`O=C(NCc1ccccc1-n1cncn1)c1c2n(c(=O)n1-c1ccc(OC3CC3)cc1)CCN(C(=O)c1ccc(Br)c(Cl)c1)C2` [Example 422, 7-(4-bromo-3-chloro-benzoyl)-2-[4-(cyclopropoxy)phenyl]-3-oxo-N-[[2-(1,2,4-triazol-1-yl)phenyl]methyl]-6,8-dihydro-5H-imidazo[1,5-a]pyrazine-1-carboxamide]: the EC50 in assay [2] is less than 100 nM.

As for `O=C(NCc1ccc(OC(F)F)cc1F)c1c2n(c(=O)n1-c1ccc(OCC(F)(F)F)cc1)CCN(C(=O)c1ccc(Br)c(Cl)c1)C2` [Example 286, 7-(4-bromo-3-chloro-benzoyl)-N-[[4-(difluoromethoxy)-2-fluoro-phenyl]methyl]-3-oxo-2-[4-(2,2,2-trifluoroethoxy)phenyl]-6,8-dihydro-5H-imidazo[1,5-a]pyrazine-1-carboxamide], the EC50 in assay [2] fell in the range of 500 to 5000 nM.

For the compound `COc1ccc(-n2c(C(=O)NCc3ccccc3C#N)c3n(c2=O)CCN(C(=O)c2ccc(Br)c(Cl)c2)C3)cc1` [Example 154, 7-(4-bromo-3-chloro-benzoyl)-N-[(2-cyanophenyl)methyl]-2-(4-methoxyphenyl)-3-oxo-6,8-dihydro-5H-imidazo[1,5-a]pyrazine-1-carboxamide], the EC50 in assay [2] was in the range of 100 to 500 nM.

`C[C@H](NC(=O)c1c2n(c(=O)n1-c1ccc(OCC(F)(F)F)cc1)CCN(C(=O)c1ccc(Br)c(Cl)c1)C2)c1ccc(OC(C)(C)C(N)=O)cc1F` (stereo in doubt) [Example 336, 7-(4-bromo-3-chloro-benzoyl)-3-oxo-N-[rac-(1S)-1-[4-(2-amino-1,1-dimethyl-2-oxo-ethoxy)-2-fluoro-phenyl]ethyl]-2-[4-(2,2,2-trifluoroethoxy)phenyl]-6,8-dihydro-5H-imidazo[1,5-a]pyrazine-1-carboxamide] yielded an EC50 in assay [2] of 100 to 500 nM.

Turning to `COc1ccc(-n2c(C(=O)NCc3ccc4[nH]ncc4c3)c3n(c2=O)CCN(C(=O)c2ccc(Cl)c(Cl)c2)C3)cc1` [Example 107, 7-(3,4-dichlorobenzoyl)-N-(1H-indazol-5-ylmethyl)-2-(4-methoxyphenyl)-3-oxo-6,8-dihydro-5H-imidazo[1,5-a]pyrazine-1-carboxamide], the EC50 in assay [2] is 500 to 5000 nM.

Turning to `O=C(NCc1c(F)cccc1Cl)c1c2n(c(=O)n1-c1ccc(OC3CC3)cc1)CCN(C(=O)c1ccc(Br)c(Cl)c1)C2` [Example 305, 7-(4-bromo-3-chloro-benzoyl)-N-[(2-chloro-6-fluoro-phenyl)methyl]-2-[4-(cyclopropoxy)phenyl]-3-oxo-6,8-dihydro-5H-imidazo[1,5-a]pyrazine-1-carboxamide], the EC50 in assay [2] fell in the range of 100 to 500 nM.

In turn, `O=C(NCc1c(F)ccc2nccnc12)c1c2n(c(=O)n1-c1ccc(OC3CC3)cc1)CCN(C(=O)c1ccc(Br)c(Cl)c1)C2` [Example 461, 7-(4-bromo-3-chloro-benozyl)-2-[4-(cyclopropoxy)phenyl]-N-[(6-fluoroquinoxalin-5-yl)methyl]-3-oxo-6,8-dihydro-5H-imidazo[1,5-a]pyrazine-1-carboxamide] returned an EC50 in assay [2] of less than 100 nM.

For `Cc1ccc(-n2c(C(=O)NCc3ccccc3)c3n(c2=O)CCN(C(=O)c2ccc(Cl)c(Cl)c2)C3)cc1` [Example 122, N-benzyl-7-(3,4-dichlorobenzoyl)-3-oxo-2-(p-tolyl)-6,8-dihydro-5H-imidazo[1,5-a]pyrazine-1-carboxamide], the EC50 in assay [2] fell in the range of 500 to 5000 nM.

In the case of `CC[C@@H](NC(=O)c1c2n(c(=O)n1-c1ccc(OC)cc1)CCN(C(=O)c1ccc(Br)c(Cl)c1)C2)c1ccccc1` (stereo in doubt) [Example 150, 7-(4-bromo-3-chloro-benzoyl)-2-(4-methoxyphenyl)-3-oxo-N-[rac-(1R)-1-phenylpropyl]-6,8-dihydro-5H-imidazo[1,5-a]pyrazine-1-carboxamide], in assay [2], the EC50 lay within 100 to 500 nM.

Turning to `CC[C@H](NC(=O)c1c2n(c(=O)n1-c1ccc(OC)cc1)CCN(C(=O)c1ccc(Br)c(Cl)c1)C2)c1ccccc1` (stereo in doubt) [Example 151, 7-(4-bromo-3-chloro-benzoyl)-2-(4-methoxyphenyl)-3-oxo-N-[rac-(1S)-1-phenylpropyl]-6,8-dihydro-5H-imidazo[1,5-a]pyrazine-1-carboxamide], the EC50 in assay [2] was in the range of 100 to 500 nM.

The values above are taken from patent publication US11591341B2 (ALIGOS THERAPEUTICS, INC., priority 2019, dated 2023).
